Laboratory results as given in ChEMBL document CHEMBL1127516, “Synthesis and structure-activity relationships of deazaxanthines: analogs of potent A1- and A2-adenosine receptor antagonists” (J Med Chem, 1994).

How the values were obtained:
[1] = biological target: T1, Adenosine receptor A1 (Rattus norvegicus, UniProt P25099); assay: Binding affinity to A1 adenosine receptor from rat cortical membrane in presence of [3H]R-(phenylisopropyl)-adenosine
T1 sequence (P25099 whole entry): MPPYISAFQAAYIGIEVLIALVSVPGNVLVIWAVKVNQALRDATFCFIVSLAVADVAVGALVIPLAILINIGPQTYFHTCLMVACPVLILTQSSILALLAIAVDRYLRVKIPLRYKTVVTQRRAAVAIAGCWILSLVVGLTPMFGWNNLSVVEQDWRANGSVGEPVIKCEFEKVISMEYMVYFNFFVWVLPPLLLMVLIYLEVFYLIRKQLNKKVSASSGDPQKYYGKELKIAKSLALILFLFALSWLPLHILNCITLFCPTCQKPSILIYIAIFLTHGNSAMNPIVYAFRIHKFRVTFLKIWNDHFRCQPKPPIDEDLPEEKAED

[2] = biological target: Adenosine A2 receptor (Rattus norvegicus, UniProt P29276+P30543); assay: Binding affinity to A2 adenosine receptor from rat striatal membrane in presence of [3H]5'-(N-ethylcarboximido)-adenosine
[3] = biological target: Adenosine A2 receptor (Rattus norvegicus) (UniProt P29276+P30543); assay: Percent inhibition of [3H]5'-(N-ethylcarboximido)-adenosine (NECA) binding to A2 adenosine receptor; assay type: protein assay; design: concentration or dose not given beside the values; settings: concentration not given here
[4] = biological target: T2, Adenosine receptor A1 (Rattus norvegicus) (UniProt P25099); assay: Percent inhibition of [3H]R-(phenylisopropyl)-adenosine (PIA) binding to A1 adenosine receptor; settings: concentration not given here
T2 sequence (whole entry): T1 sequence (P25099 whole entry)

| SMILES | Ki [1] | Ki [2] | inhibition [3] | inhibition [4] |
| --- | --- | --- | --- | --- |
| Cn1c(=O)[nH]c2cc[nH]c2c1=O | 2900 nM | 34000 nM |  |  |
| Cn1c(=O)c2c(ccn2C)n(C)c1=O | 32000 nM | 72000 nM |  |  |
| CCCn1c(=O)[nH]c2cc(-c3ccccc3)[nH]c2c1=O | 39 nM | 1200 nM |  |  |
| CCCn1c(=O)[nH]c2cc[nH]c2c1=O | 1700 nM | 18000 nM |  |  |
| Cn1c(=O)c2[nH]c(-c3ccc4ccccc4c3)cc2n(C)c1=O | 26 nM | > 500 nM | 34% |  |
| CCCn1c(=O)c2[nH]ccc2n(CCC)c1=O | 440 nM | 5100 nM |  |  |
| CCCn1c(=O)c2c(ccn2C)n(CCC)c1=O | 2300 nM | 13000 nM |  |  |
| Cn1c(=O)c2[nH]ccc2n(C)c1=O | 5400 nM | 12000 nM |  |  |
| CCCn1c(=O)c2[nH]c(-c3ccccc3)cc2n(CCC)c1=O | 13 nM | 450 nM |  |  |
| Cn1c(=O)c2c(cc(/C=C/c3ccccc3)n2O)n(C)c1=O | 560 nM | 1800 nM |  |  |
| CCCn1c(=O)c2c(cc(-c3ccccc3)n2C)n(CCC)c1=O |  | 5200 nM |  |  |
| CCCn1c(=O)c2[nH]c(N(C)C)cc2n(CCC)c1=O | 130 nM | 16000 nM |  |  |
| Cn1c(=O)c2cc[nH]c2n(C)c1=O | 43000 nM | > 250000 nM | 39% |  |
| Cn1c(=O)c2c(cc(-c3cccc4ccccc34)n2C)n(C)c1=O | 9200 nM | > 30000 nM | 22% |  |
| Cn1c(=O)c2c(cc(/C=C/c3ccccc3)n2C)n(C)c1=O | 2600 nM | 260 nM |  |  |
| CCCn1c(=O)c2c(ncn2C)n(CCC)c1=O |  | 10000 nM |  |  |
| Cn1c(=O)c2c(cc(-c3ccc4ccccc4c3)n2O)n(C)c1=O | 220 nM | 1000 nM |  |  |
| Cn1c(=O)c2c(cc(-c3cccc4ccccc34)n2O)n(C)c1=O | > 30000 nM | > 100000 nM | 38% | 47% |
| Cn1c(=O)c2c(cc(-c3ccc4ccccc4c3)n2C)n(C)c1=O | 270 nM | 1100 nM |  |  |

Now from value to molecule:

| Ki [1] | Ki [2] | inhibition [3] | inhibition [4] | SMILES |
| --- | --- | --- | --- | --- |
|  | 830 nM |  |  | Cn1c(=O)c2nc(-c3ccccc3)[nH]c2n(C)c1=O [8-PHENYL THEOPHYLLINE] |
| 97 nM | 2000 nM |  |  | Cn1c(=O)[nH]c2cc(-c3ccccc3)[nH]c2c1=O |
| 165 nM | 640 nM |  |  | Cn1c(=O)c2[nH]c(/C=C/c3ccccc3)cc2n(C)c1=O |
| 11000 nM | 40000 nM |  |  | Cn1c(=O)c2cc(-c3ccccc3)n(C)c2n(C)c1=O |
|  | 15000 nM |  |  | CCCn1c(=O)c2c(nc(-c3ccccc3)n2C)n(CCC)c1=O |
|  | 14000 nM |  |  | Cn1c(=O)c2c(cc(-c3ccccc3)n2C)n(C)c1=O |
| > 30000 nM | > 30000 nM | 1.2% | 33% | Cn1c(=O)c2[nH]c(-c3cccc4ccccc34)cc2n(C)c1=O |
| 47 nM | 510 nM |  |  | Cn1c(=O)c2[nH]c(-c3ccccc3)cc2n(C)c1=O |
| 3100 nM | 12000 nM |  |  | Cn1c(=O)c2cc(-c3ccccc3)[nH]c2n(C)c1=O |
|  | 25000 nM |  |  | Cn1c(=O)c2c(nc(-c3ccccc3)n2C)n(C)c1=O |
